Measured values published in patent US20180179499A1, “BIOBASED PRODUCTION OF FUNCTIONALIZED ALPHA-SUBSTITUTED ACRYLATES AND C4-DICARBOXYLATES” (BIOAMBER INC., priority 2015, published 2018).

How the values were obtained:
E. coli = test: Host tolerance: growth rate with compound versus unchallenged cells; assay type: cell-based; conditions: pH 8, 30° C.
Method: Two eukaryotic strains, I. orientalis and S. cerevisiae, were tested at pH 3 and pH 5. Three bacterial strains were tested using their individual optimal conditions. E. coli and C. glutamicum were tested at pH 8 and 30° C., and B. firmus was tested at pH 9 and 37° C. I. orientalis was grown in defined yeast media consisting of 5 g/L ammonium sulfate, 0.5 g/L magnesium sulfate heptahydrate, 3 g/L potassium phosphate monobasic, 10 g/L dextrose, 1 mL/L of 10% glycerol stock, 1 mL/L of 1000× trace. The 1000× trace stock solution contains 4 g/L ZnSO4.7H2O, 2 g/L FeSO4.7H2O, 1 g/L MnSO4.H2O, 0.2 g/L CuSO4.5H2O, and 0.8 mL/L H2SO4. […]
Time points were taken over a period of at least 8 hours and up to 24 hours to calculate the rate of growth. Specific growth rate was determined by plotting the natural logarithm of cell number against time. Tolerance was determined by growth rate of cells in the presence of the compound as compared to in the absence of the compound. […]
(§1) Time points were taken over a period of at least 8 hours and up to 24 hours to calculate the rate of growth. Specific growth rate was determined by plotting the natural logarithm of cell number against time. Tolerance was determined by growth rate of cells in the presence of the compound as compared to in the absence of the compound.

B. firmus = test: as above; assay type: cell-based; conditions: pH 9, 37° C.
Method: (§2) Potential hosts for the described pathways to alpha substituted C4 dicarboxylic acids were identified by determining the tolerance to functionalized alpha substituted dicarboxylic acids as shown in FIG. 2. Specific functionalized alpha substituted C4 dicarboxylic acid compounds were selected to assess tolerance of bacterial and eukaryotic hosts.
(§3) Two eukaryotic strains, I. orientalis and S. cerevisiae, were tested at pH 3 and pH 5. Three bacterial strains were tested using their individual optimal conditions. E. coli and C. glutamicum were tested at pH 8 and 30° C., and B. firmus was tested at pH 9 and 37° C. I. orientalis was grown in defined yeast media consisting of 5 g/L ammonium sulfate, 0.5 g/L magnesium sulfate heptahydrate, 3 g/L potassium phosphate monobasic, 10 g/L dextrose, 1 mL/L of 10% glycerol stock, 1 mL/L of 1000× trace. The 1000× trace stock solution contains 4 g/L ZnSO4.7H2O, 2 g/L FeSO4.7H2O, 1 g/L MnSO4.H2O, 0.2 g/L CuSO4.5H2O, and 0.8 mL/L H2SO4. S. cerevisiae was grown in buffered defined dextrose media consisting of 50 g/L dextrose, 5 g/L yeast extract, and 40 mL/L 25× DM salts. The 25× DM salt stock solution contains 125 g/L ammonium sulfate, 12.5 g/L magnesium sulfate heptahydrate, 75 g/L potassium phosphate monobasic, and 787.5 g/L water. The bacterial strains were grown in standard LB media consisting of 10 g/L bacto-tryptone, 5 g/L yeast extract, 10 g/L NaCl, and 20 g/L dextrose with addition of 20 g/L glucose.
(§4) Time points were taken over a period of at least 8 hours and up to 24 hours to calculate the rate of growth. Specific growth rate was determined by plotting the natural logarithm of cell number against time. Tolerance was determined by growth rate of cells in the presence of the compound as compared to in the absence of the compound. The scoring method is indicated in Table D. The results of the tolerance studies are shown in Tables E and F. The second column from the left denotes the maximum concentration of the indicated compound in which growth was detected. […] I. orientalis is also a suitable host for most of the compounds.
(§5) Potential hosts for the described pathways to alpha substituted acrylic acid were identified by determining the tolerance to functionalized alpha substituted acrylic acid end-products as shown generally in FIGS. 1 and 3 and more specifically in FIGS. 9 and 10. […]
(§6) Time points were taken over a period of at least 8 hours and up to 24 hours to calculate the rate of growth. Specific growth rate was determined by plotting the natural logarithm of cell number against time. […]

C. glutamicum = test: as above; assay type: cell-based; conditions: pH 8, 30° C.
Method: as §2, §3, §4, §5, §6

[1] = test system: potential yeast hosts (I. orientalis, S. cerevisiae); test: Tolerance of potential yeast hosts: maximum concentration in which growth was detected; assay type: cell-based; conditions: Table E
Method: as §3, §1
(§7) Two eukaryotic strains, I. orientalis and S. cerevisiae, were tested for tolerance to the selected compounds at pH 3 and pH 5. The bacterial strains were grown at their individual optimal conditions, E coli and C. glutamicum at pH 8 and 30° C., and B. firmus and B. cohnii at pH 9 and 37° C. I. orientalis was grown in defined yeast media consisting of 5 g/L ammonium sulfate, 0.5 g/L magnesium sulfate heptahydrate, 3 g/L potassium phosphate monobasic, 10 g/L dextrose, 1 mL/L of 10% glycerol stock, 1 mL/L of 1000× trace. The 1000× trace stock solution contains 4 g/L ZnSO4.7H2O, 2 g/L FeSO4.7H2O, 1 g/L MnSO4.H2O, 0.2 g/L CuSO4.5H2O, and 0.8 mL/L H2SO4. S. cerevisiae was grown in buffered defined dextrose media consisting of 50 g/L dextrose, 5 g/L yeast extract, and 40 mL/L 25×DM salts. The 25×DM salt stock solution contains 125 g/L ammonium sulfate, 12.5 g/L magnesium sulfate heptahydrate, 75 g/L potassium phosphate monobasic, and 787.5 g/L water. The bacterial strains were grown in standard LB media consisting of 10 g/L bacto-tryptone, 5 g/L yeast extract, 10 g/L NaCl, and 20 g/L dextrose with addition of 20 g/L glucose.
as §1

[2] = test system: potential bacterial hosts (E. coli, C. glutamicum, B. firmus, B. cohnii); test: Tolerance of potential bacterial hosts: highest concentration with growth observed; assay type: cell-based; conditions: Table F, max conc tested 100 g/L
Method: as §3, §1, §7, §1

E coli = test: Host tolerance to hydroxymethyl-3HP, relative OD after 24 hours; assay type: cell-based; conditions: 24 hours incubation at 30° C.
Method: (§8) FIG. 33(a) presents comparative tolerance data of potential host organisms to 3-hydroxymethyl 3-hydroxypropionic acid (HM3HP) where Km=K. marxianus, Sc=S. cerevisiae, Ec=E. coli (from Example 17). Within each grouping, the right bar represents Ec, the left bar represents Km, and the middle bar represents Sc.
as §7
(§9) In one embodiment, alpha substituted 3-hydroxypropionic acid is produced by the host organism. In a specific embodiment, alpha hydroxymethyl 3-hydroxypropionic acid is produced by the host organism. To evaluate host organisms, the protocol described above was used. The relative OD at the end of 24 hours incubation at 30° C. was compared for Kluyveromyces marxianus, S. cerevisiae, and E coli in the presence of different amounts of hydroxymethyl-3HP (FIG. 33(a)).

Kluyveromyces marxianus = test: as above; assay type: cell-based; conditions: K. marxianus, 24 hours incubation at 30° C.
Method: as §8, §7, §9

S. cerevisiae = test: as above; assay type: cell-based; conditions: 24 hours incubation at 30° C.
Method: as §8, §7, §9

[3] = Dehydration of HM3HP to HMA at different temperature and pH (NMR); assay type: physicochemical; conditions: overnight
Method: In the case of the microorganism producing alpha-substituted 3-hydroxymethyl acid, such as in Examples 9 and 21, this compound is dehydrated to alpha-substituted acrylic acid. In one embodiment, alpha-hydroxymethyl 3-hydroxypropionic acid (HM3HP) is dehydrated to alpha-hydroxymethyl acrylic acid (HMA). A known amount of HM3HP was dissolved into buffered solution. […] Samples were incubated at −20° C., 30° C., or 70° C. overnight. NMR analysis was used to measure the amount of HM3HP that was dehydrated to HMA. […] The pH of the solution had more effect on conversion to HMA than did changes in temperature.

[4] = Dehydratase assay: lysate incubated with itatartaric acid, HPLC/NMR; assay type: biochemical; conditions: knockout E coli strains (acnA or acnB deleted), lysate with ITT overnight at 30° C., HPLC
Method: E. coli optimized genes encoding dehydratases are synthesized and cloned into pTrcHisA (Life Technologies (formerly Invitrogen)). Dehydratase candidates are found in Table I. Plasmids containing the optimized synthase genes are transformed into BL21 E. coli cells. Empty plasmid pTrcHisA are also transformed as a negative control. […]. Flasks are incubated at 30° C. at 250 rpm shaking for 2 hours, then protein production is induced with 0.2 mM IPTG and incubated for 4 more hours at 30° C. while shaking. Cells are harvested by centrifugation and pellets are stored at −80° C.
Cells are lysed using mechanical disruption using a BeadBeater (BopSpec products, Bartlesville, Okla.) using the manufacturer's instructions. […] Protein concentrations of the resulting clarified lysates are measured via BioRad total Protein assay using the manufacturer's instructions. […]
The reaction mixture contains 100 mM TAPS buffer pH 6.8, 100 mM KCl, 100 mM substrate alpha (hydroxymethyl) maleic acid. […] The reactions in these microplates are monitored at 235 nm. Readings are taken every 9 seconds for 10 minutes and the data is used to calculate activities of each enzyme. Background absorbance is measured by the same reaction with no substrate present are subtracted. […]
The lysates were incubated with or without a known amount of synthesized ITT overnight at 30° C., and then the samples were analyzed by HPLC. […]

Molecule: O=C(O)CC1(C(=O)O)CCC(=O)O1 (centres unmarked) [Homocitrate lactone]
- Tolerance score (percent growth rate as compared to unchallenged cells) (E. coli): +++ (100-90%)
- Tolerance score (percent growth rate as compared to unchallenged cells) (B. firmus): − (10-0%)
- Tolerance score (percent growth rate as compared to unchallenged cells) (C. glutamicum): − (10-0%)
- Max conc (maximum concentration in which growth was detected) [1]: 100 g/L
- Highest conc with growth observed [2]: 100 g/L

Molecule: O=C(O)CC[C@@](O)(CC(=O)O)C(=O)O [Homocitrate]
- Tolerance score (percent growth rate as compared to unchallenged cells) (E. coli): − (10-0%)
- Tolerance score (percent growth rate as compared to unchallenged cells) (B. firmus): − (10-0%)
- Tolerance score (percent growth rate as compared to unchallenged cells) (C. glutamicum): +++ (100-90%)
- Max conc (maximum concentration in which growth was detected) [1]: 100 g/L
- Highest conc with growth observed [2]: 50 g/L

Molecule: O=C(O)C(CO)CO [alpha-hydroxymethyl 3-hydroxypropionic acid]
- Tolerated concentration (E coli): at least 60 g/L
- Tolerated concentration (Kluyveromyces marxianus): at least 60 g/L
- Tolerated concentration (S. cerevisiae): at least 60 g/L
- Relative HMA levels ([3]; pH 3, 30 C.): 0.00
- Relative HMA levels ([3]; pH 3, 70 C.): 0.00
- Relative HMA levels ([3]; pH 3, −20 C.): 0.00
- Relative HMA levels ([3]; pH 7, 30 C.): 0.13
- Relative HMA levels ([3]; pH 7, 70 C.): 0.18
- Relative HMA levels ([3]; pH 7, −20 C.): 0.13
- Relative HMA levels ([3]; pH 10, 30 C.): 1.18
- Relative HMA levels ([3]; pH 10, 70 C.): 1.00
- Relative HMA levels ([3]; pH 10, −20 C.): 0.81

B1: acnA: E coli aconitase acnA, endogenous dehydratase, GenBank CAA42834 (protein, UniProt P25516 2-891, looked up)
Aconitate hydratase A: SSTLREASKDTLQAKDKTYHYYSLPLAAKSLGDITRLPKSLKVLLENLLRWQDGNSVTEEDIHALAGWLKNAHADREIAYRPARVLMQDFTGVPAVVDLAAMREAVKRLGGDTAKVNPLSPVDLVIDHSVTVDRFGDDEAFEENVRLEMERNHERYVFLKWGKQAFSRFSVVPPGTGICHQVNLEYLGKAVWSELQDGEWIAYPDTLVGTDSHTTMINGLGVLGWGVGGIEAEAAMLGQPVSMLIPDVVGFKLTGKLREGITATDLVLTVTQMLRKHGVVGKFVEFYGDGLDSLPLADRATIANMSPEYGATCGFFPIDAVTLDYMRLSGRSEDQVELVEKYAKAQGMWRNPGDEPIFTSTLELDMNDVEASLAGPKRPQDRVALPDVPKAFAASNELEVNATHKDRQPVDYVMNGHQYQLPDGAVVIAAITSCTNTSNPSVLMAAGLLAKKAVTLGLKRQPWVKASLAPGSKVVSDYLAKAKLTPYLDELGFNLVGYGCTTCIGNSGPLPDPIETAIKKSDLTVGAVLSGNRNFEGRIHPLVKTNWLASPPLVVAYALAGNMNINLASEPIGHDRKGDPVYLKDIWPSAQEIARAVEQVSTEMFRKEYAEVFEGTAEWKGINVTRSDTYGWQEDSTYIRLSPFFDEMQATPAPVEDIHGARILAMLGDSVTTDHISPAGSIKPDSPAGRYLQGRGVERKDFNSYGSRRGNHEVMMRGTFANIRIRNEMVPGVEGGMTRHLPDSDVVSIYDAAMRYKQEQTPLAVIAGKEYGSGSSRDWAAKGPRLLGIRVVIAESFERIHRSNLIGMGILPLEFPQGVTRKTLGLTGEEKIDIGDLQNLQPGATVPVTLTRADGSQEVVPCRCRIDTATELTYYQNDGILHYVIRNMLK
- Formation of ITT dehydration product [4]: capable of producing the observed dehydration product
